According to paper PMC4607728, “Effect of monovalent cations on the kinetics of hypoxic conformational change of mitochondrial complex I” (Biochimica et Biophysica Acta, 2015):

Legend:
[1] = molecular target: T1, bovine mitochondrial complex I (proton-translocating NADH:ubiquinone oxidoreductase) (Bos taurus, UniProt P03887+P17694+P42026); experiment: NADH:Q1 oxidoreductase inhibition, SMP, NADH absorbance at […] nm; assay type: biochemical; conditions: neutral pH (7.0; Figure 7 caption gives NADH-oxidase reaction, A-form); SET buffer, 25 °C, 165 μM NADH; 5-7 min preincubation
T1 construct: gene NDUFS2; with NADH-ubiquinone oxidoreductase chain 3; NADH dehydrogenase [ubiquinone]; 1 alpha subcomplex subunit 9, mitochondrial; NADH-ubiquinone oxidoreductase chain 2; NADH-ubiquinone oxidoreductase chain 4; NADH-ubiquinone oxidoreductase chain 4L; NADH-ubiquinone oxidoreductase chain 5; NADH-ubiquinone oxidoreductase chain 6; NADH-ubiquinone oxidoreductase 75 kDa subunit, mitochondrial; NADH dehydrogenase [ubiquinone] flavoprotein 1, mitochondrial; NADH dehydrogenase [ubiquinone] flavoprotein 2, mitochondrial; NADH dehydrogenase [ubiquinone] iron-sulfur protein 3, mitochondrial; NADH dehydrogenase [ubiquinone] iron-sulfur protein 8, mitochondrial
T1 sequence (P17694 34-463): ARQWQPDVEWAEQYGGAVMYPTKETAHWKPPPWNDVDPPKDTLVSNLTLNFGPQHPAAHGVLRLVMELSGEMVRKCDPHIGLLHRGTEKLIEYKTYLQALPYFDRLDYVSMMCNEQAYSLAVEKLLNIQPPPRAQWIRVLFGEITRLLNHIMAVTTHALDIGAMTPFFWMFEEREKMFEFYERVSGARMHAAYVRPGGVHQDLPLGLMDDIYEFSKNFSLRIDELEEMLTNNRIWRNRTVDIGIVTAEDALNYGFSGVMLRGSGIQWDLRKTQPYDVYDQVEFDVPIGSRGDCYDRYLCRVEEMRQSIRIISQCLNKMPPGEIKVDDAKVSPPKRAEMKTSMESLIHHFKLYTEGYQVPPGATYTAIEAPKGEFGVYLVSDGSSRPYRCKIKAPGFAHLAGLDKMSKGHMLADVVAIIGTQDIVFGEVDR
T1 sequence (P42026 38-216): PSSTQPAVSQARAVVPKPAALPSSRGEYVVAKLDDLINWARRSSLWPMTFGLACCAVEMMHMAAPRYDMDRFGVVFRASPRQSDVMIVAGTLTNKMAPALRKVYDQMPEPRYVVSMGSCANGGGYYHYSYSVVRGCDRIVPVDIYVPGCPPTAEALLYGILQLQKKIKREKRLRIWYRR
T1 sequence (P03887 whole entry): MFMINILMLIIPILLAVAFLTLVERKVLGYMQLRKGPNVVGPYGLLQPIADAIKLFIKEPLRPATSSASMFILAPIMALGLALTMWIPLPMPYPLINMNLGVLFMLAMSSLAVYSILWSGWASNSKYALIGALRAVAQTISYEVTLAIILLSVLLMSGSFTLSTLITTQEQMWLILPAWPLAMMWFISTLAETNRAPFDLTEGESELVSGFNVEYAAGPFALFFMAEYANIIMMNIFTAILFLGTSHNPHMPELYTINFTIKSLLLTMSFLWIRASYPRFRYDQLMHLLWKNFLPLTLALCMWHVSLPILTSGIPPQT
T1 sequence (P03898 whole entry partner): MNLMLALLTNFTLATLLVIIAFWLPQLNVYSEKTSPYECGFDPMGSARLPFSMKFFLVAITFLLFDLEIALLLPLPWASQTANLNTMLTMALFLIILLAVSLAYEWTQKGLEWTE
T1 sequence (P34943 36-380 partner): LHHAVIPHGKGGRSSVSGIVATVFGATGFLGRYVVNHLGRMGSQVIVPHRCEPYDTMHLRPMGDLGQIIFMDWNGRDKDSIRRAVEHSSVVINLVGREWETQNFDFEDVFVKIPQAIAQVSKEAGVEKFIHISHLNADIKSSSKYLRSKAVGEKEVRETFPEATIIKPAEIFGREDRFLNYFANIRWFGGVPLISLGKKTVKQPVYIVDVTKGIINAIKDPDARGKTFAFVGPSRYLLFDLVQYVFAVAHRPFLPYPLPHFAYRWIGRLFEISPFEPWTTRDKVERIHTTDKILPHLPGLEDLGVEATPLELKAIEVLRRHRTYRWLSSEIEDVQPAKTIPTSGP

[2] = molecular target: T1, bovine mitochondrial complex I (proton-translocating NADH:ubiquinone oxidoreductase); experiment: rate constant of D-to-A activation from lag phase of NADH oxidation, SMP; assay type: biochemical; conditions: D-form of complex I; pH 7.0, SET buffer, no alkali cations; control without EIPA 1.00 ± 0.04 min^-1; 165 μM NADH

SMILES: CCN(c1nc(N)c(C(=O)NC(=N)N)nc1Cl)C(C)C [EIPA]
- IC50 [1]: ~40 µM
- kD → A at 20 μM EIPA [2]: 0.22 ± 0.04 min^− 1
